# Experimental data as given in ChEMBL document CHEMBL2440076, “New triarylpyrazoles as broad-spectrum anticancer agents: design, synthesis, and biological evaluation” (Eur J Med Chem, 2013).
# Experiments:
# Type in all cases: functional
# NCI-H23 [1] = experiment: Growth inhibition of human NCI-H23 cells assessed as cell growth at 5X10'-6 M after 48 hrs by sulforhodamine B assay; settings: NCI-H23, 48 h, read-out: Activity
# UACC-62 = experiment: Growth inhibition of human UACC62 cells assessed as cell growth at 3X10'-7 M after 48 hrs by sulforhodamine B assay; settings: UACC-62, 48 h, read-out: Activity
# LOX IMVI [2] = experiment: Growth inhibition of human LOXIMVI cells assessed as cell growth at 3X10'-7 M after 48 hrs by sulforhodamine B assay; settings: read-out: Activity
# U-251 = experiment: Growth inhibition of human U251 cells assessed as cell growth at 3X10'-7 M after 48 hrs by sulforhodamine B assay; settings: U-251, 48 h, read-out: Activity
# SF-295 = experiment: Growth inhibition of human SF295 cells assessed as cell growth at 3X10'-7 M after 48 hrs by sulforhodamine B assay; settings: SF-295, 48 h, read-out: Activity
# HT-29 = experiment: Growth inhibition of human HT-29 cells assessed as cell growth at 3X10'-7 M after 48 hrs by sulforhodamine B assay; settings: HT-29, 48 h, read-out: Activity
# HCT-116 [3] = experiment: Growth inhibition of human HCT116 cells assessed as cell growth at 3X10'-7 M after 48 hrs by sulforhodamine B assay; settings: HCT-116, 48 h, read-out: Activity
# K562 = experiment: Growth inhibition of human K562 cells assessed as cell growth at 3X10'-7 M after 48 hrs by sulforhodamine B assay; settings: K562, 48 h, read-out: Activity
# CCRF-CEM [4] = experiment: Growth inhibition of human CCRF-CEM cells assessed as cell growth at 3X10'-7 M after 48 hrs by sulforhodamine B assay; settings: read-out: Activity
# IGROV-1 = experiment: Growth inhibition of human IGROV1 cells assessed as cell growth at 3X10'-8 M after 48 hrs by sulforhodamine B assay; settings: IGROV-1, 48 h, read-out: Activity
# HCT-15 [5] = experiment: Growth inhibition of human HCT15 cells assessed as cell growth at 3X10'-8 M after 48 hrs by sulforhodamine B assay; settings: HCT-15, 48 h, read-out: Activity
# HCT-116 [6] = experiment: Growth inhibition of human HCT116 cells assessed as cell growth at 3X10'-8 M after 48 hrs by sulforhodamine B assay; settings: HCT-116, 48 h, read-out: Activity
# NCI-H460 = experiment: Growth inhibition of human NCI-H460 cells assessed as cell growth at 3X10'-8 M after 48 hrs by sulforhodamine B assay; settings: NCI-H460, 48 h, read-out: Activity
# NCI-H23 [7] = experiment: Growth inhibition of human NCI-H23 cells assessed as cell growth at 3X10'-8 M after 48 hrs by sulforhodamine B assay; settings: NCI-H23, 48 h, read-out: Activity
# RPMI-8226 [8] = experiment: Growth inhibition of human RPMI8226 cells assessed as cell growth at 3X10'-8 M after 48 hrs by sulforhodamine B assay; settings: RPMI-8226, 48 h, read-out: Activity
# 786-0 [9] = experiment: Growth inhibition of human 786-0 cells assessed as cell growth at 3X10'-5 M after 48 hrs by sulforhodamine B assay; settings: 786-0, 48 h, read-out: Activity
# OVCAR-5 = experiment: Growth inhibition of human OVCAR5 cells assessed as cell growth at 3X10'-5 M after 48 hrs by sulforhodamine B assay; settings: OVCAR-5, 48 h, read-out: Activity
# A498 = experiment: Growth inhibition of human A498 cells assessed as cell growth at 3X10'-9 M after 48 hrs by sulforhodamine B assay; settings: A498, 48 h, read-out: Activity
# OVCAR-3 [10] = experiment: Growth inhibition of human OVCAR3 cells assessed as cell growth at 3X10'-9 M after 48 hrs by sulforhodamine B assay; settings: OVCAR-3, 48 h, read-out: Activity
# OVCAR-3 [11] = experiment: Growth inhibition of human OVCAR3 cells assessed as cell growth at 3X10'-5 M after 48 hrs by sulforhodamine B assay; settings: OVCAR-3, 48 h, read-out: Activity
# M14 [12] = experiment: Growth inhibition of human M14 cells assessed as cell growth at 3X10'-5 M after 48 hrs by sulforhodamine B assay; settings: M14, 48 h, read-out: Activity
# MDA-MB-231 = experiment: Growth inhibition of human MDA-MB-231 cells assessed as cell growth at 3X10'-6 M after 48 hrs by sulforhodamine B assay; settings: MDA-MB-231, 48 h, read-out: Activity
# MCF7 = experiment: Growth inhibition of human MCF7 cells assessed as cell growth at 3X10'-6 M after 48 hrs by sulforhodamine B assay; settings: MCF7, 48 h, read-out: Activity
# LOX IMVI [13] = experiment: Growth inhibition of human LOXIMVI cells assessed as cell growth at 3X10'-9 M after 48 hrs by sulforhodamine B assay; settings: read-out: Activity
# SNB-19 = experiment: Growth inhibition of human SNB19 cells assessed as cell growth at 3X10'-9 M after 48 hrs by sulforhodamine B assay; settings: SNB-19, 48 h, read-out: Activity
# SW-620 = experiment: Growth inhibition of human SW620 cells assessed as cell growth at 3X10'-9 M after 48 hrs by sulforhodamine B assay; settings: SW-620, 48 h, read-out: Activity
# COLO 205 = experiment: Growth inhibition of human COLO205 cells assessed as cell growth at 3X10'-9 M after 48 hrs by sulforhodamine B assay; settings: COLO 205, 48 h, read-out: Activity
# 786-0 [14] = experiment: Growth inhibition of human 786-0 cells assessed as cell growth at 3X10'-6 M after 48 hrs by sulforhodamine B assay; settings: 786-0, 48 h, read-out: Activity
# SK-MEL-2 = experiment: Growth inhibition of human SK-MEL-2 cells assessed as cell growth at 3X10'-6 M after 48 hrs by sulforhodamine B assay; settings: SK-MEL-2, 48 h, read-out: Activity
# M14 [15] = experiment: Growth inhibition of human M14 cells assessed as cell growth at 3X10'-6 M after 48 hrs by sulforhodamine B assay; settings: M14, 48 h, read-out: Activity
# LOX IMVI [16] = experiment: Growth inhibition of human LOXIMVI cells assessed as cell growth at 3X10'-6 M after 48 hrs by sulforhodamine B assay; settings: read-out: Activity
# HCT-15 [17] = experiment: Growth inhibition of human HCT15 cells assessed as cell growth at 3X10'-6 M after 48 hrs by sulforhodamine B assay; settings: HCT-15, 48 h, read-out: Activity
# NCI-H23 [18] = experiment: Growth inhibition of human NCI-H23 cells assessed as cell growth at 3X10'-6 M after 48 hrs by sulforhodamine B assay; settings: NCI-H23, 48 h, read-out: Activity
# RPMI-8226 [19] = experiment: Growth inhibition of human RPMI8226 cells assessed as cell growth at 3X10'-6 M after 48 hrs by sulforhodamine B assay; settings: RPMI-8226, 48 h, read-out: Activity
# CCRF-CEM [20] = experiment: Growth inhibition of human CCRF-CEM cells assessed as cell growth at 3X10'-6 M after 48 hrs by sulforhodamine B assay; settings: read-out: Activity
# MDA-MB-468 = experiment: Growth inhibition of human MDA-MB-468 cells assessed as cell growth at 3X10'-7 M after 48 hrs by sulforhodamine B assay; settings: MDA-MB-468, 48 h, read-out: Activity
# CAKI-1 = experiment: Growth inhibition of human CAKI-1 cells assessed as cell growth at 3X10'-7 M after 48 hrs by sulforhodamine B assay; settings: CAKI-1, 48 h, read-out: Activity
SMILES,growth at 5 µM (NCI-H23 [1]),growth at 0.3 µM (UACC-62),growth at 0.3 µM (LOX IMVI [2]),growth at 0.3 µM (U-251),growth at 0.3 µM (SF-295),growth at 0.3 µM (HT-29),growth at 0.3 µM (HCT-116 [3]),growth at 0.3 µM (K562),growth at 0.3 µM (CCRF-CEM [4]),growth at 0.03 µM (IGROV-1),growth at 0.03 µM (HCT-15 [5]),growth at 0.03 µM (HCT-116 [6]),growth at 0.03 µM (NCI-H460),growth at 0.03 µM (NCI-H23 [7]),growth at 0.03 µM (RPMI-8226 [8]),growth at 30 µM (786-0 [9]),growth at 30 µM (OVCAR-5),growth at 0.003 µM (A498),growth at 0.003 µM (OVCAR-3 [10]),growth at 30 µM (OVCAR-3 [11]),other results
COc1cc(-c2nn(-c3cccc(NC(=O)c4cccc(C(F)(F)F)c4)c3)cc2-c2ccncc2)ccc1Cl,13%,–,–,–,–,–,–,–,–,–,–,–,–,–,–,–,–,–,–,–,–
O=C(Nc1cccc(-n2cc(-c3ccncc3)c(-c3ccc(Cl)c(O)c3)n2)c1)Nc1ccc(Cl)c(C(F)(F)F)c1,–,89%,87%,82%,90%,93%,94%,88%,80%,109%,95%,106%,100%,100%,89%,1%,-14%,91%,109%,-16%,growth at 30 µM (M14 [12]): -39%; growth at 3 µM (MDA-MB-231): -38%; growth at 3 µM (MCF7): 2%; growth at 0.003 µM (LOX IMVI [13]): 100%; growth at 0.003 µM (SNB-19): 96%; growth at 0.003 µM (SW-620): 100%; growth at 0.003 µM (COLO 205): 105%; growth at 3 µM (786-0 [14]): 19%; growth at 3 µM (SK-MEL-2): -41%; growth at 3 µM (M14 [15]): -7%; growth at 3 µM (LOX IMVI [16]): -71%; growth at 3 µM (HCT-15 [17]): 4%; growth at 3 µM (NCI-H23 [18]): 1%; growth at 3 µM (RPMI-8226 [19]): -20%; growth at 3 µM (CCRF-CEM [20]): -7%; growth at 0.3 µM (MDA-MB-468): 72%; growth at 0.3 µM (CAKI-1): 87%
O=C(Nc1cccc(-n2cc(-c3ccncc3)c(-c3ccc(Cl)c(O)c3)n2)c1)Nc1cccc(C(F)(F)F)c1,–,92%,97%,97%,88%,111%,98%,101%,94%,98%,100%,97%,101%,94%,98%,7%,22%,92%,96%,-25%,growth at 30 µM (M14 [12]): -20%; growth at 3 µM (MDA-MB-231): 52%; growth at 3 µM (MCF7): 26%; growth at 0.003 µM (LOX IMVI [13]): 97%; growth at 0.003 µM (SNB-19): 94%; growth at 0.003 µM (SW-620): 98%; growth at 0.003 µM (COLO 205): 101%; growth at 3 µM (786-0 [14]): 58%; growth at 3 µM (SK-MEL-2): 35%; growth at 3 µM (M14 [15]): 21%; growth at 3 µM (LOX IMVI [16]): 44%; growth at 3 µM (HCT-15 [17]): 27%; growth at 3 µM (NCI-H23 [18]): 36%; growth at 3 µM (RPMI-8226 [19]): 25%; growth at 3 µM (CCRF-CEM [20]): 25%; growth at 0.3 µM (MDA-MB-468): 81%; growth at 0.3 µM (CAKI-1): 91%
O=C(Nc1cccc(-n2cc(-c3ccncc3)c(-c3ccc(Cl)c(O)c3)n2)c1)c1ccc(N2CCOCC2)c(C(F)(F)F)c1,46%,–,–,–,–,–,–,–,–,–,–,–,–,–,–,–,–,–,–,–,–
